Values joined by “and” are separate entries in the source; they are usually repeats but may differ in a detail not shown here. Equal values may be shown once.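 Each compound was tested at five concentrations against cells in 96-well plates for 48 hours. GI50: concentration for 50% inhibition of growth. The concentration for full growth arrest is given as TGI.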
Columns and labels:
Experiment in all cases: NCI anticancer screen, dose series, 48 h
SK-MEL-2 melanoma = system: SK-MEL-2 melanoma
U251 CNS = system: U251 CNS
HOP-92 NSCLC = system: HOP-92 NSCLC
UO-31 renal = system: UO-31 renal
HCT-116 colon = system: HCT-116 colon
SF-539 CNS = system: SF-539 CNS
OVCAR-5 ovarian = system: OVCAR-5 ovarian
MALME-3M melanoma = system: MALME-3M melanoma
NCI-H23 lung = system: NCI-H23 lung

SMILES | GI50 (SK-MEL-2 melanoma) [µM] | TGI (SK-MEL-2 melanoma) | GI50 (U251 CNS) [µM] | TGI (U251 CNS) | GI50 (HOP-92 NSCLC) [µM] | TGI (HOP-92 NSCLC) | GI50 (UO-31 renal) [µM] | TGI (UO-31 renal) | GI50 (HCT-116 colon) [µM] | TGI (HCT-116 colon) | GI50 (SF-539 CNS) [µM] | TGI (SF-539 CNS) | GI50 (OVCAR-5 ovarian) [µM] | TGI (OVCAR-5 ovarian) | GI50 (MALME-3M melanoma) [µM] | TGI (MALME-3M melanoma) [µM] | GI50 (NCI-H23 lung) [µM] | TGI (NCI-H23 lung)
FC(F)(F)c1cc(-c2nnc3n2N=C(N2CCCC2)CS3)cc(C(F)(F)F)c1 | > 50 | > 50 µM | 18.1 | > 50 µM | 25.9 | > 50 µM | > 50 | > 50 µM | 7.99 | > 50 µM | 34 | > 50 µM | > 50 | > 50 µM | > 50 | > 50 | > 50 | > 50 µM
CCCC(=O)Nc1cc(C(=O)N2C[C@@H]3C[C@]34C2=CC(=O)c2[nH]cc(C)c24)n(COC)c1 | 1.98 | 12.2 µM and 3.46 µM | 2.39 | 20.6 µM and 6.21 µM | 3.22 | 11.2 µM and 7.85 µM | 26.7 | 17.3 µM and 94.4 µM | 2.69 | 50 µM and 11.8 µM | 2.15 | 31.1 µM and 5.28 µM | 3.86 | 50 µM and 10.6 µM |  | 10.9 | 1.38 | 9.19 µM and 3.6 µM
COc1ccccc1/C=C/[N+](=O)[O-] | 5.4 | 17.2 µM | 2.07 | 5.72 µM |  |  | 1.45 | 2.8 µM | 1.51 | 2.9 µM | 2.16 | 4.32 µM | 3.55 | 14.1 µM | 2.82 | 9.11 | 1.96 | 4.6 µM
O=C(Nc1ccc(F)cc1)c1ccc(NC2=C(Cl)C(=O)N(Cc3ccccc3)C2=O)cc1 | 5.34 | 19.3 µM | 11 | 24.1 µM | 5.23 | 19.1 µM | 10.5 | 23.4 µM | 2.23 | 4.82 µM | 11.2 | 26.7 µM | 9.15 | 27.1 µM |  |  | 31.5 | 84.4 µM
O=C(O)[C@@H]1[C@H](C(=O)O)[C@H](C(=O)O)C[C@@H]1C(=O)O |  | > 100 µM |  | > 100 µM |  | > 100 µM |  | > 100 µM |  | > 100 µM |  | > 100 µM |  | > 100 µM |  | > 100 |  | > 100 µM
NCCCOCC(=O)O |  | > 100 µM |  | > 100 µM |  | > 100 µM |  | > 100 µM |  | > 100 µM |  | > 100 µM |  | > 100 µM |  | > 100 |  | > 100 µM
Cc1c(S(C)(=O)=O)c(-c2cc(F)cc(N3CCN(c4ccc(NS(=O)(=O)c5ccc(N[C@H](CCN6CCC(C(=O)OCCCP(=O)(O)O)CC6)CSc6ccccc6)c(S(=O)(=O)C(F)(F)F)c5)cc4)CC3)c2)c(-c2ccc(Cl)cc2)n1C(C)C | > 100 | > 100 µM | > 100 | > 100 µM | 0.0794 | 0.952 µM | > 100 | > 100 µM | > 100 | > 100 µM | > 100 | > 100 µM | > 100 | > 100 µM | > 100 | > 100 | > 100 | > 100 µM
